For this experiment, the system named is L1210 leukemia ip in BDF1 mice, survival T/C. In words: NCI In Vivo Anticancer Drug Screen. Data for tumor model L1210 Leukemia (intraperitoneal) in B6D2F1 (BDF1) mice. The conditions noted are these: endpoint: mean survival time, higher = longer survival. Summed up:
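In this screen, tumor-bearing mice given compound are compared to those given vehicle, and their survival values are reported as a treated-to-control quotient.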

[1] abbreviates: dose: 100.0 mg/kg/injection, schedule: Q01DX001 (ip), vehicle: carboxymethylcellulose (CMC).
[2] abbreviates: dose: 200.0 mg/kg/injection, schedule: Q01DX001 (ip), vehicle: carboxymethylcellulose (CMC).
Setting [3] is: dose: 400.0 mg/kg/injection, schedule: Q01DX001 (ip), vehicle: carboxymethylcellulose (CMC).
Where [4] appears, read: dose: 100.0 mg/kg/injection, schedule: Q01DX001 (ip), vehicle: saline.
[5] abbreviates: dose: 200.0 mg/kg/injection, schedule: Q01DX001 (ip), vehicle: saline.
[6] abbreviates: dose: 400.0 mg/kg/injection, schedule: Q01DX001 (ip), vehicle: saline.

Values joined by “and” are separate entries in the source; they are usually repeats but may differ in a detail not shown here. Equal values may be shown once. Inconclusive results and toxic doses are left out.

In the case of `CCC1NCCc2cc(OC)c(O)cc21` (centres undefined), the T/C is 106 % of control (dose: 75.0 mg/kg/injection, schedule: Q01DX001 (ip), vehicle: saline) and 100 % of control (dose: 150.0 mg/kg/injection, schedule: Q01DX001 (ip), vehicle: saline).

Regarding `O=c1[nH]c2c(Br)c([N+](=O)[O-])c(Br)cc2c2ccc(Br)cc12`, the T/C under setting [1] was 100 % of control, the T/C under setting [2] is 98 % of control and the T/C under setting [3] was 91 % of control.

Turning to `CS(=O)(=O)Nc1ccc(Nc2c3ccccc3nc3cc([N+](=O)[O-])ccc23)cc1`, the T/C (dose: 0.02 mg/kg/injection, schedule: Q01DX009 (ip), vehicle: saline) is 118 % of control; the T/C (dose: 0.1 mg/kg/injection, schedule: Q01DX009 (ip), vehicle: acetone) is 119 % of control; the T/C (dose: 0.15 mg/kg/injection, schedule: Q01DX009 (ip), vehicle: acetone) was 112 % of control; the T/C (dose: 0.16 mg/kg/injection, schedule: Q01DX009 (ip), vehicle: saline) was 153 % of control; the T/C (dose: 0.6 mg/kg/injection, schedule: Q01DX001 (ip), vehicle: acetone) is 116 % of control; the T/C (dose: 0.82 mg/kg/injection, schedule: Q01DX009 (ip), vehicle: acetone) was 151 % of control. For the same molecule, the T/C reads like this: (dose: 1.25 mg/kg/injection, schedule: Q01DX009 (ip), vehicle: saline) 164 % of control; (dose: 1.25 mg/kg/injection, schedule: Q01DX009 (sc), vehicle: Klucel (hydroxypropylcellulose) (HPC)) 113 % of control; (dose: 1.56 mg/kg/injection, schedule: Q04DX003 (ip), vehicle: saline) 107 % of control; (dose: 2.5 mg/kg/injection, schedule: Q01DX009 (ip), vehicle: saline) 156 % of control and 220 % of control; (dose: 2.5 mg/kg/injection, schedule: Q01DX009 (sc), vehicle: Klucel (hydroxypropylcellulose) (HPC)) 118 % of control; (dose: 3.12 mg/kg/injection, schedule: Q04DX003 (ip), vehicle: saline) 107 % of control. The T/C runs as follows: (dose: 3.13 mg/kg/injection, schedule: Q01DX001 (ip), vehicle: saline) 151 % of control; (dose: 5.0 mg/kg/injection, schedule: Q01DX009 (ip), vehicle: saline) 184 % of control; (dose: 6.25 mg/kg/injection, schedule: Q01DX001 (ip), vehicle: saline) 159 % of control; (dose: 6.25 mg/kg/injection, schedule: Q04DX003 (ip), vehicle: saline) 107 % of control; (dose: 10.0 mg/kg/injection, schedule: Q01DX009 (sc), vehicle: Klucel (hydroxypropylcellulose) (HPC)) 195 % of control; (dose: 12.5 mg/kg/injection, schedule: Q01DX001 (ip), vehicle: saline) 161 % of control. Besides, the T/C was 240 % of control (dose: 25.0 mg/kg/injection, schedule: Q01DX001 (ip), vehicle: saline) and 168 % of control under setting [4].

On to `CCOC(=O)c1ccc(N=C2C(C)(C)C(=Nc3ccc(C(=O)OCC)cc3)C2(C)C)cc1`, for which the T/C runs as follows: (dose: 100.0 mg/kg/injection, schedule: Q04DX002 (ip), vehicle: saline with Tween-80) 93 % of control; (dose: 200.0 mg/kg/injection, schedule: Q04DX002 (ip), vehicle: saline with Tween-80) 87 % of control; (dose: 400.0 mg/kg/injection, schedule: Q04DX002 (ip), vehicle: saline with Tween-80) 87 % of control.

As to `COc1ccc(NC(=O)CCc2ccccc2)cc1`, the T/C (dose: 12.5 mg/kg/injection, schedule: Q01DX001 (ip), vehicle: Klucel (hydroxypropylcellulose) (HPC)) is 98 % of control; the T/C (dose: 25.0 mg/kg/injection, schedule: Q01DX001 (ip), vehicle: Klucel (hydroxypropylcellulose) (HPC)) is 88 % of control; the T/C (dose: 50.0 mg/kg/injection, schedule: Q01DX001 (ip), vehicle: Klucel (hydroxypropylcellulose) (HPC)) is 93 % of control; the T/C (dose: 100.0 mg/kg/injection, schedule: Q01DX001 (ip), vehicle: Klucel (hydroxypropylcellulose) (HPC)) was 86 % of control; the T/C (dose: 200.0 mg/kg/injection, schedule: Q01DX001 (ip), vehicle: Klucel (hydroxypropylcellulose) (HPC)) was 88 % of control; the T/C (dose: 400.0 mg/kg/injection, schedule: Q01DX001 (ip), vehicle: Klucel (hydroxypropylcellulose) (HPC)) was 91 % of control.

`NC(=O)/C=C/NC(=O)/C=N\O`: the T/C is 97 % of control and 89 % of control (dose: 12.5 mg/kg/injection, schedule: Q01DX Z (ip), vehicle: saline); 92 % of control and 93 % of control (dose: 25.0 mg/kg/injection, schedule: Q01DX Z (ip), vehicle: saline); 96 % of control and 97 % of control (dose: 50.0 mg/kg/injection, schedule: Q01DX Z (ip), vehicle: saline); 102 % of control under setting [1]; 96 % of control and 100 % of control (dose: 100.0 mg/kg/injection, schedule: Q01DX Z (ip), vehicle: saline); 96 % of control under setting [2]. Further, the T/C reads like this: (dose: 200.0 mg/kg/injection, schedule: Q01DX Z (ip), vehicle: saline) 97 % of control and 89 % of control; under setting [3], 91 % of control.

`Nc1cc(Nc2cccc(Cl)c2)nc(N)n1`: the T/C under setting [1] is 94 % of control.

Regarding `CC1(C)OC(CCl)C2OC(C)(C)OC(CCl)C2O1` (centres undefined), the T/C is 93 % of control under setting [4], 88 % of control under setting [5] and 104 % of control under setting [6].

For the molecule `NOCc1csc(NC(=O)Nc2ccccc2)n1`, the T/C (dose: 18.8 mg/kg/injection, schedule: Q01DX009 (ip), vehicle: saline with Tween-80) is 95 % of control; the T/C (dose: 37.5 mg/kg/injection, schedule: Q01DX009 (ip), vehicle: saline with Tween-80) was 103 % of control; the T/C (dose: 75.0 mg/kg/injection, schedule: Q01DX009 (ip), vehicle: saline with Tween-80) was 105 % of control.

Consider `O=C(O)c1ccccc1-c1c2ccc(=O)c(O)c-2oc2c(O)c(O)ccc12`, for which the T/C (dose: 10.0 mg/kg/injection, schedule: Q04DX003 (ip), vehicle: other) is 99 % of control; the T/C (dose: 20.0 mg/kg/injection, schedule: Q04DX003 (ip), vehicle: other) is 94 % of control; the T/C (dose: 40.0 mg/kg/injection, schedule: Q04DX003 (ip), vehicle: other) was 98 % of control; the T/C (dose: 50.0 mg/kg/injection, schedule: Q04DX003 (ip), vehicle: other) is 112 % of control; the T/C (dose: 80.0 mg/kg/injection, schedule: Q04DX003 (ip), vehicle: other) is 89 % of control; the T/C (dose: 100.0 mg/kg/injection, schedule: Q04DX003 (ip), vehicle: other) is 104 % of control. The T/C (dose: 200.0 mg/kg/injection, schedule: Q04DX003 (ip), vehicle: other) is 124 % of control.

In the case of `O=c1c(O)c(-c2ccc(-c3oc4ccccc4c(=O)c3O)cc2)oc2ccccc12`, the T/C runs as follows: (dose: 50.0 mg/kg/injection, schedule: Q01DX001 (ip), vehicle: saline) 97 % of control; under setting [4], 89 % of control; under setting [5], 91 % of control; under setting [6], 101 % of control.

In the case of `CCOC(=O)/C(=C\c1ccccn1)C(C)=O`, the T/C by setting is: (dose: 25.0 mg/kg/injection, schedule: Q04DX003 (ip), vehicle: saline) 102 % of control; (dose: 50.0 mg/kg/injection, schedule: Q04DX003 (ip), vehicle: saline) 102 % of control; (dose: 100.0 mg/kg/injection, schedule: Q04DX003 (ip), vehicle: saline) 102 % of control.

Consider `CCOC(=O)C(=CNc1cc(NC(C)=O)nc(SC)n1)C(=O)OCC`, for which the T/C (dose: 100.0 mg/kg/injection, schedule: Q04DX002 (ip), vehicle: Klucel (hydroxypropylcellulose) (HPC)) is 96 % of control; the T/C (dose: 200.0 mg/kg/injection, schedule: Q04DX002 (ip), vehicle: Klucel (hydroxypropylcellulose) (HPC)) is 103 % of control; the T/C (dose: 400.0 mg/kg/injection, schedule: Q04DX002 (ip), vehicle: Klucel (hydroxypropylcellulose) (HPC)) is 96 % of control.

With `CCOC(=O)N=C=O`, the T/C runs as follows: (dose: 100.0 mg/kg/injection, schedule: Q01DX009 (ip), vehicle: water) 103 % of control; (dose: 100.0 mg/kg/injection, schedule: Q04DX003 (ip), vehicle: water) 95 % of control; (dose: 200.0 mg/kg/injection, schedule: Q01DX009 (ip), vehicle: water) 100 % of control; (dose: 200.0 mg/kg/injection, schedule: Q04DX003 (ip), vehicle: water) 101 % of control; (dose: 400.0 mg/kg/injection, schedule: Q04DX003 (ip), vehicle: water) 101 % of control.

Consider `O=c1c2ccccc2nc2sc3ccccc3n12`, for which the T/C is, setting by setting: (dose: 100.0 mg/kg/injection, schedule: Q01DX009 (ip), vehicle: other) 93 % of control; (dose: 200.0 mg/kg/injection, schedule: Q01DX009 (ip), vehicle: other) 107 % of control; (dose: 400.0 mg/kg/injection, schedule: Q01DX009 (ip), vehicle: other) 103 % of control.

The values above are taken from PubChem BioAssay AID248 (DTP/NCI, 2004).
